The values below come from ChEMBL document CHEMBL5523699, “Exploring novel pyrazole-nitroimidazole hybrids: Synthesis and antiprotozoal activity against the human pathogen trichomonas vaginalis” (Bioorg Med Chem, 2024).

The nature of data set [1]: Cytotoxicity against human HeLa cells assessed as reduction in cell viability incubated for 48 hrs by MTT assay. The class given is toxicity, cell-based. A general note: Formazan colour is commonly taken as a measure of viable cells.
Data set [2] can be described thus: Cytotoxicity against human HeLa cells assessed as reduction in cell viability incubated for 24 hrs by MTT assay. Format: toxicity, cell-based.
In data set [3] the test system is Trichomonas vaginalis. The data set can be described thus: Antiparasitic activity against Trichomonas vaginalis JT assessed as inhibition of parasite growth incubated for 48 hrs by flow cytometric analysis. The class given is functional, organism-based.
Data set [4] in a line: Selectivity index, ratio of CC50 for cytotoxicity against human […] cells incubated for 48 hrs to IC50 for antiparasitic activity against Trichomonas vaginalis JT assessed as inhibition of parasite growth incubated for 48 hrs. The class given is toxicity, cell-based. The settings on record: read-out: Ratio CC50/IC50.
Data set [5] can be described thus: Selectivity index, ratio of CC50 for cytotoxicity against human […] cells incubated for 24 hrs to IC50 for antiparasitic activity against Trichomonas vaginalis JT assessed as inhibition of parasite growth incubated for 24 hrs. The class given is toxicity, cell-based. The settings on record: read-out: Ratio CC50/IC50.
Data set [6] concerns Trichomonas vaginalis. The data set is described as follows: Antiparasitic activity against Trichomonas vaginalis JT assessed as inhibition of parasite growth incubated for 24 hrs by flow cytometric analysis. The class given is functional, organism-based.
For data set [7], the system named is Trichomonas vaginalis. The data set is described as follows: Selectivity index, ratio of IC50 for antiparasitic activity against Trichomonas vaginalis JT assessed as inhibition of parasite growth incubated for 24 hrs to IC50 for antiparasitic activity against Trichomonas vaginalis JT assessed as inhibition of parasite growth incubated for 48 hrs. Format: functional.

Data set [8] deals with Trichomonas vaginalis. The data set is described as follows: Potency index, ratio of metronidazole IC50 to test compound IC50 for antiparasitic activity against Trichomonas vaginalis JT assessed as inhibition of parasite growth incubated for 48 hrs by flow cytometric analysis. The class given is functional. In general terms: Flow cytometry measures light scatter and fluorescence of single cells or particles in a stream.

The test system of data set [9] is Trichomonas vaginalis. The data set is described as follows: Selectivity index, ratio of IC50 for antiparasitic activity against Trichomonas vaginalis JT assessed as inhibition of parasite growth incubated for 48 hrs to IC50 for antiparasitic activity against Trichomonas vaginalis JT assessed as inhibition of parasite growth incubated for 24 hrs. The class given is functional.

Each structure is given as a SMILES string. pIC50: −log10 of the molar value.

As for `O=C(OCCn1cnc([N+](=O)[O-])c1)c1cnn(-c2cccc(F)c2)c1`, the CC50 at 48 h in data set [1] was 100 µM. The CC50 at 24 h in data set [2] was 185 µM. The pIC50 in the data set with Trichomonas vaginalis [3] and in the data set on Trichomonas vaginalis [6] was 4.74 in each case. For the same molecule, the selectivity ratio at 48 h in data set [4] was determined as 5.58. Further, the selectivity ratio at 24 h in [5] was found to be 10.1.

Regarding `O=C(OCCn1cnc([N+](=O)[O-])c1)c1cnn(-c2ccc(F)cc2)c1`, the cytotoxic concentration (CC50) at 48 h in [1] came out at 182 µM. Also, the “Ratio IC50” value with Trichomonas vaginalis [7] is roughly 2.5; in the data set with Trichomonas vaginalis [8], “<=19.2”. Further, the cytotoxic concentration (CC50) at 24 h in data set [2] came out at 214 µM. For the same molecule, the negative-log IC50 (pIC50) is 5.42 with Trichomonas vaginalis [3] and 5.00 in the data set on Trichomonas vaginalis [6]. Also, the selectivity ratio at 48 h in data set [4] amounted to 48.2. The selectivity ratio at 24 h in data set [5] was 21.

`O=[N+]([O-])c1cn(CCO)cn1`: the CC50 at 48 h in [1] stood at 212 µM. In addition, the CC50 at 24 h in [2] amounted to 120 µM. Besides, the pIC50 in the data set on Trichomonas vaginalis [3] is 4.39; in the data set with Trichomonas vaginalis [6], 4.70. Further, the selectivity ratio at 48 h in [4] stood at 5.22. Moreover, the selectivity ratio at 24 h in data set [5] worked out at 6.

`O=C(OCCn1cnc([N+](=O)[O-])c1)c1cnn(-c2ccc(Cl)cc2)c1`: the CC50 at 48 h in data set [1] is 177 µM. Besides, the “Ratio IC50” value with Trichomonas vaginalis [9] is roughly 2. In data set [2], the CC50 at 24 h is 195 µM. The pIC50 in the data set with Trichomonas vaginalis [3] was 4.99; in the data set with Trichomonas vaginalis [6], 5.32. Also, the selectivity ratio at 48 h in [4] worked out at 17. In addition, in data set [5], the selectivity ratio at 24 h came out at 40.3.

As for `O=C(OCCn1cnc([N+](=O)[O-])c1)c1cnn(-c2ccccc2)c1`, in data set [1], the CC50 at 48 h came out at 98 µM. The CC50 at 24 h in data set [2] turned out to be 236 µM. The pIC50 in the data set with Trichomonas vaginalis [3] was 4.90; with Trichomonas vaginalis [6] it was 5.12. For the same molecule, in [4], the selectivity ratio at 48 h is 7.7. Further, the selectivity ratio at 24 h in [5] was 31.4.

Turning to `Cc1ncc([N+](=O)[O-])n1CCO` [METRONIDAZOLE], the CC50 at 48 h in data set [1] was found to be 286 µM. For the same molecule, the CC50 at 24 h in data set [2] was 666 µM. In addition, the negative-log IC50 (pIC50) was 4.40 in the data set with Trichomonas vaginalis [3] and 5.31 in the data set with Trichomonas vaginalis [6]. In data set [4], the selectivity ratio at 48 h was found to be 7.19. Moreover, the selectivity ratio at 24 h in data set [5] stood at 136.

On to `O=C(OCCn1cnc([N+](=O)[O-])c1)c1cnn(-c2cc(Cl)cc(Cl)c2)c1`, for which, in [1], the CC50 at 48 h stood at 164 µM. Moreover, the “Ratio IC50” value with Trichomonas vaginalis [8] is recorded as “<=19.2”. In data set [2], the CC50 at 24 h was 266 µM. Further, the values for the pIC50 with Trichomonas vaginalis [3] and with Trichomonas vaginalis [6] were 5.36 and 4.86, respectively. Also, the selectivity ratio at 48 h in [4] amounted to 37. Also, the selectivity ratio at 24 h in data set [5] amounted to 19.2.

Regarding `O=C(OCCn1cnc([N+](=O)[O-])c1)c1cnn(-c2cccc(Br)c2)c1`, the CC50 at 48 h in data set [1] came to 111 µM. Besides, the “Ratio IC50” value is roughly 2.5 in the data set on Trichomonas vaginalis [7] and “<=19.2” with Trichomonas vaginalis [8]. In data set [2], the cytotoxic concentration (CC50) at 24 h came out at 148 µM. Besides, the results for the pIC50 in the data set on Trichomonas vaginalis [3] and in the data set with Trichomonas vaginalis [6] were 5.68 and 5.28, respectively. For the same molecule, in data set [4], the selectivity ratio at 48 h was found to be 53.8. The selectivity ratio at 24 h in data set [5] came to 28.1.

As for `O=C(OCCn1cnc([N+](=O)[O-])c1)c1cnn(-c2cccc(Cl)c2)c1`, the CC50 at 48 h in data set [1] worked out at 84.9 µM. The 50% cytotoxic concentration (CC50) at 24 h in [2] worked out at 218 µM. Further, the pIC50 in the data set on Trichomonas vaginalis [3] is 5.10; in the data set with Trichomonas vaginalis [6] it was 4.99. The selectivity ratio at 48 h in data set [4] worked out at 10.5. The selectivity ratio at 24 h in data set [5] is 21.

Regarding `O=C(OCCn1cnc([N+](=O)[O-])c1)c1cnn(-c2ccc(Br)cc2)c1`, in data set [1], the cytotoxic concentration (CC50) at 48 h was 90.4 µM. Besides, in data set [2], the CC50 at 24 h amounted to 69.3 µM. The figures for the pIC50 in the data set with Trichomonas vaginalis [3] and in the data set with Trichomonas vaginalis [6] were 4.73 and 4.82, respectively. The selectivity ratio at 48 h in [4] is 4.86. For the same molecule, the selectivity ratio at 24 h in data set [5] was 4.6.

Regarding `O=C(OCCn1cnc([N+](=O)[O-])c1)c1cnn(-c2ccc(Cl)c(Cl)c2)c1`, the CC50 at 48 h in data set [1] worked out at 313 µM. In addition, the CC50 at 24 h in data set [2] came out at 584 µM. For the same molecule, the pIC50 in the data set with Trichomonas vaginalis [3] is 4.45; in the data set on Trichomonas vaginalis [6], 5.28. For the same molecule, in data set [4], the selectivity ratio at 48 h worked out at 8.81. Moreover, the selectivity ratio at 24 h in [5] is 110.

As for `COc1ccc(-n2cc(C(=O)OCCn3cnc([N+](=O)[O-])c3)cn2)cc1`, the CC50 at 48 h in data set [1] came out at 141 µM. Besides, the CC50 at 24 h in data set [2] amounted to 211 µM. In addition, the pIC50 in the data set with Trichomonas vaginalis [3] is 4.61; in the data set on Trichomonas vaginalis [6] it was 4.73. The selectivity ratio at 48 h in data set [4] came out at 5.78. For the same molecule, the selectivity ratio at 24 h in [5] came out at 11.1.

One may read the CC50 as the concentration giving 50% cytotoxicity. The term pIC50 denotes −log10 of the IC50, conventionally taken in molar units.
